{"source": "patent US6603023B2", "about": "(priority 1996, dated 2003)", "key": {"CCRF-CEM/VBL100": {"tested_on": "CCRF-CEM/VBL100", "assay": "cells", "type": "cell-based, human", "conditions": "for fold resistance (cross-resistance) vs parent CCRF-CEM: CCRF-CEM/VBL100 MDR cells; for IC50: read-out: IC50", "in_short": "(§1)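 Growth was read by XTT/PMS reduction over 4 h at 37 °C after 72 h of compound treatment, with absorbance at 450 nm and 630 nm. CCRF-CEM, P388 and their resistant sublines, grown continuously with their selecting drugs, were cultured in duplicate at 5×10^4 cells/mL. The medium was RPMI-1640 with 10% FBS.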"}, "CCRF-CEM/Taxol®": {"tested_on": "CCRF-CEM/Taxol®", "assay": "cells", "type": "cell-based, human", "conditions": "Table 1A", "in_short": "as §1"}, "CCRF-CEM/VM1": {"tested_on": "CCRF-CEM/VM1", "assay": "cells", "type": "cell-based, human", "conditions": "for IC50: XTT, read-out: IC50", "in_short": "as §1"}, "[1]": {"tested_on": "human neuroblastoma SK-N-As", "assay": "SRB cytotoxicity, SK-N-As", "type": "cell-based", "conditions": "Table 1C; SRB, 72 h; read-out: IC50", "in_short": "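Cellular protein content measured with sulforhodamine B after trichloroacetic acid fixation, read at 570 nm. Each duplicate run used six to seven concentrations, analysed by the median-effect method. Cells were cultured at 37 °C, 5% CO2 in RPMI 1640-10% FBS, and drug-resistant lines were maintained with their selecting agent.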"}, "Human CCRF-CEM Xenograft": {"tested_on": "Human CCRF-CEM Xenograft", "assay": "CCRF-CEM xenograft in scid mice", "type": "in vivo, CB-17 scid mice", "conditions": "for mice died of drug toxicity: 7 mice"}, "[2]": {"tested_on": "CCRF-CEM human T-cell acute lymphoblastic leukemia cell line", "assay": "XTT cytotoxicity (cell growth inhibition), CCRF-CEM", "in_short": "as §1"}, "MCF-7/Adr": {"tested_on": "MCF-7/Adr", "assay": "cells", "type": "cell-based, human", "conditions": "Table 1C", "in_short": "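Sulforhodamine B readout: TCA-fixed cultures stained 30 min with 0.4% SRB, bound dye extracted in unbuffered Tris and read at 570 nm. Duplicate experiments, six to seven drug concentrations per run.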"}, "[3]": {"tested_on": "human ovarian adenocarcinoma SK-OV-3", "conditions": "0.6 mg/kg i.p. Q2Dx5 from day 9"}, "[4]": {"conditions": "dose 0.7 i.p. QD d7-10,14,15, day 12"}, "[5]": {"conditions": "dose 0.7 i.p. QD d7-10,14,15, day 17"}, "[6]": {"conditions": "dose 0.7 i.p. QD d7-10,14,15, day 22"}, "[7]": {"conditions": "dose 1.0 i.p. QD d7-10,14,15, day 12"}, "[8]": {"conditions": "dose 1.0 i.p. QD d7-10,14,15, day 17"}, "[9]": {"conditions": "dose 1.0 i.p. QD d7-10,14,15, day 22"}}, "note": "Where two headings read alike, the source gives them in different places.", "data": [{"smiles": "C/C(=C\\c1csc(C)n1)[C@@H]1C[C@@H]2O[C@]2(C)CCC[C@H](C)[C@H](O)[C@@H](C)C(=O)C(C)(C)[C@@H](O)CC(=O)O1", "note": "[Epothilone B, epothilone B]", "values": [{"measurement": "fold resistance (cross-resistance) vs parent CCRF-CEM", "setting": "CCRF-CEM/VBL100", "result": 5, "unit": "fold"}, {"measurement": "fold resistance (cross-resistance) vs parent CCRF-CEM", "setting": "CCRF-CEM/VBL100; listed as EpoB", "result": 6.1, "unit": "fold"}, {"measurement": "Potency in parentheses relative to Epo B in CCRF-CEM cells", "setting": "CCRF-CEM/VBL100; CCRF-CEM/VBL MDR cells", "result": "1/6"}, {"measurement": "Potency in square brackets relative to Epo B in CCRF-CEM/VBL MDR cells", "setting": "CCRF-CEM/VBL100; CCRF-CEM/VBL MDR cells", "result": 1}, {"measurement": "IC50", "setting": "CCRF-CEM/VBL100; Table 1, XTT", "result": 3, "unit": "nM"}, {"measurement": "(B)/(A) IC50 ratio", "setting": "CCRF-CEM/VBL100; Table 1A, CCRF-CEM/VBL100 vs CCRF-CEM", "result": 6.1}, {"measurement": "IC50", "setting": "CCRF-CEM/VBL100; listed as Epo B", "result": 2.1, "unit": "nM"}, {"measurement": "IC50", "setting": "CCRF-CEM/VBL100", "result": 2, "unit": "nM"}, {"measurement": "(C)/(A) IC50 ratio", "setting": "CCRF-CEM/Taxol®; CCRF-CEM/Taxol vs CCRF-CEM", "result": 3.1}, {"measurement": "IC50", "setting": "CCRF-CEM/Taxol®; XTT, 72 h, read-out: IC50", "result": 1.1, "unit": "nM"}, {"measurement": "IC50", "setting": "CCRF-CEM/VM1; Table 1", "result": 2, "unit": "nM"}, {"measurement": "(D)/(A) IC50 ratio", "setting": "CCRF-CEM/VM1; Table 1A, CCRF-CEM/VM1 vs CCRF-CEM", "result": 3.6}, {"measurement": "IC50", "setting": "CCRF-CEM/VM1; Table 1A, 72 h", "result": 1.3, "unit": "nM"}, {"measurement": "IC50", "setting": "[1]", "result": 4, "unit": "nM"}, {"measurement": "mice died of drug toxicity", "setting": "Human CCRF-CEM Xenograft; Epo B dose 0.7 i.p., day 19 & 20", "result": "^4.Two mice died of drug toxicity on day 19 & 20."}, {"measurement": "mice died of drug toxicity", "setting": "Human CCRF-CEM Xenograft; Epo B dose 1.0 i.p., day 18, 19 and 21", "result": "^5.Three mice died of drug toxicity on day 18, 19 and 21."}, {"measurement": "Average weight change", "setting": "Human CCRF-CEM Xenograft; dose 0.7 i.p. QD d7-10,14,15, day 7", "result": "−0.1"}, {"measurement": "Average tumor volume (control = 1.00)", "setting": "Human CCRF-CEM Xenograft; [4]", "result": 0.53}, {"measurement": "Average weight change", "setting": "Human CCRF-CEM Xenograft; [4]", "result": "−0.7"}, {"measurement": "Average tumor volume (control = 1.00)", "setting": "Human CCRF-CEM Xenograft; [5]", "result": 0.48}, {"measurement": "Average weight change", "setting": "Human CCRF-CEM Xenograft; [5]", "result": "−1.4"}, {"measurement": "Average tumor volume (control = 1.00)", "setting": "Human CCRF-CEM Xenograft; [6]", "result": 0.46}, {"measurement": "Average weight change", "setting": "Human CCRF-CEM Xenograft; [6]", "result": "+0.3"}, {"measurement": "Average weight change", "setting": "Human CCRF-CEM Xenograft; dose 1.0 i.p. QD d7-10,14,15, day 7", "result": "+0.1"}, {"measurement": "Average tumor volume (control = 1.00)", "setting": "Human CCRF-CEM Xenograft; [7]", "result": 0.46}, {"measurement": "Average weight change", "setting": "Human CCRF-CEM Xenograft; [7]", "result": "−1.5"}, {"measurement": "Average tumor volume (control = 1.00)", "setting": "Human CCRF-CEM Xenograft; [8]", "result": 0.35}, {"measurement": "Average weight change", "setting": "Human CCRF-CEM Xenograft; [8]", "result": "−2.4"}, {"measurement": "Average tumor volume (control = 1.00)", "setting": "Human CCRF-CEM Xenograft; [9]", "result": 0.43}, {"measurement": "Average weight change", "setting": "Human CCRF-CEM Xenograft; [9]", "result": "+0.1"}, {"measurement": "IC50", "setting": "[2]", "result": 0.35, "unit": "nM"}, {"measurement": "fold more potent than Epo A", "setting": "[2]; CCRF-CEM cells", "result": 6, "unit": "fold"}, {"measurement": "fold more potent than Taxol", "setting": "[2]; CCRF-CEM cells", "result": 10, "unit": "fold"}, {"measurement": "Rel. Value (potency relative to Epo B)", "setting": "[2]; CCRF-CEM leukemic cells", "result": 1}, {"measurement": "IC50", "setting": "[2]; Table 1, XTT", "result": 0.4, "unit": "nM"}, {"measurement": "folds of resistance (IC50 ratio vs parent cell line)", "setting": "MCF-7/Adr; MCF-7/Adr vs MCF-7", "result": "(5.4x)"}, {"measurement": "IC50", "setting": "MCF-7/Adr; SRB, 72 h, read-out: IC50", "result": 2.7, "unit": "nM"}, {"measurement": "Toxicity Death", "setting": "[3]", "result": "0/6"}, {"measurement": "Tumor Disapp.", "setting": "[3]", "result": "0/6"}, {"measurement": "Average Body Weight Change", "setting": "[3]; day 13", "result": -0.9, "unit": "g"}, {"measurement": "Average Body Weight Change", "setting": "[3]; day 15", "result": -0.5, "unit": "g"}, {"measurement": "Average Tumor Size (T/C)", "setting": "[3]; day 15", "result": 0.75}, {"measurement": "Average Body Weight Change", "setting": "[3]; day 17", "result": -3.3, "unit": "g"}, {"measurement": "Average Tumor Size (T/C)", "setting": "[3]; day 17", "result": 0.69}, {"measurement": "Average Body Weight Change", "setting": "[3]; day 19", "result": -3.4, "unit": "g"}, {"measurement": "Average Tumor Size (T/C)", "setting": "[3]; day 19", "result": 0.88}, {"measurement": "Average Tumor Size (T/C)", "setting": "[3]; day 21", "result": 0.77}]}]}
